According to patent US20080318803A1, “Biomarkers for Monitoring Impdh Pathway Inhibition” (VERTEX PHARMACEUTICALS, priority 2004, published 2008):
pIC50, pKi: −log10 of the molar value. Like-named read-outs stand apart in the source and are kept apart here.

How the values were obtained:
PBMCs PHA-T cell = assay: PBMC proliferation assay (PHA-stimulated T cells); format: cell-based, human; conditions: for pIC50: Homo sapiens, PBMC
Source text: Monitoring gene expression patterns offers an alternative approach for optimizing the therapeutic window as compared with the traditional method of measuring drug concentrations in blood and correlating either the AUC or Cmax levels with a clinical response. Towards that end, the inventors have comprehensively evaluated several genes affected by treatment with two distinct IMPDH inhibitors in vitro, as potential readouts for assessing their biological activity. The genes that are listed in Tables I through VIII are particularly useful in the present invention. These genes were identified using the specific methods as follows: Most cell culture reagents, unless specified otherwise, were obtained from Gibco-BRL or JRH Biologicals. Complete RPMI was prepared by adding up to a final of 10% heat-inactivated fetal bovine serum (FBS), 55 μM β mercaptoethanol, 50 units/mL penicillin with 50 μg/mL streptomycin, 300 μg/ml L-glutamine and 10 mM HEPES pH 7.5 to RPMI1640. Stock solutions of Phyto-hemagglutinin (PHA-P, Difco) was prepared in FBS-free RPMI and stored at −20° C. VX-944, and MPA (Sigma-Aldrich or Calbiochem), were dissolved in DMSO at a concentration of 20 mM and stored at −20° C.
Peripheral blood mononuclear cells (PBMCs) and T cells were isolated as follows: Human venous blood was drawn from healthy volunteers using heparin as an anti-coagulant. PBMCs were isolated from blood by centrifugation over Ficoll-paque gradient or CPT tubes (Becton-Dickinson, Calif.), using standard conditions. PBMCs were harvested, washed and resuspended in complete RPMI, counted and diluted to 1×10^6 cells/ml.
In order to monitor PBMC proliferation assay, human PBMC derived T cells (5×10^4 cells/well), were added to 96-well plates. PHA was added up to a final concentration of 10-20 μg/mL per well for stimulating T cells. The mitogen SPAS was used at a final concentration of 2 mg/mL. DMSO was maintained at a final concentration of 0.1%.

[1] = test system: genes responsive to IMPDH inhibition; assay: Gene chip analysis of genes responsive to IMPDH inhibition (18 gene chips, 8793 genes); format: cell-based; conditions: for No. genes modulated: of 3421 genes common to all 18 gene chips
Source text: The present invention is directed to methods and compositions for using biomarkers that are responsive to changes in IMPDH activity levels.

HL-60 cells = assay: Affymetrix array transcript profiling in HL-60 cells, 14 h (early) and 30 h (late); format: cell-based, human
Protocol: The above agents were tested in HL-60 cells at a concentration of 500 nM for VX-944 and 1000 nM for MPA or with 0.1% DMSO as the vehicle control. The cells were harvested at 14 or 30 hours post addition of compound or vehicle. Briefly, the culture medium was removed at the appropriate time-points and the cells washed with PBS. The cells were then harvested, and pelleted by-gentle centrifugation. The supernatant was discarded and the pellets snap-frozen on an ethanol/dry-ice slurry. RNA was isolated from cells by using a RNEasy kit from Qiagen. RNAs were quality controlled using the Agilent 2100 Bioanalyzer to determine the presence of RNAs.
Data from the arrays corresponding to VX-944 and MPA at the two time-points—14 hours (Early) and 30 hours (Late) were analyzed using Spotfire™, microarray data analysis software. Some of the data analysis parameters used are outlined below:
a) All the arrays were normalized by using trimmed means, with a 5% exclusion limit
b) Only genes present in at least 5 of the 6 chips used for the analyses were included in the genesets
c) Only statistically significant genes (ANOVA, p<0.05) were included in the final analyses to generate gene lists.
At the late (30 h) time-point, 335 genes were identified as overlapping between the VX-944 and MPA datasets. […] With MPA 66 genes are in common between the two time-points. As to a comparison between the two data sets, of the 102 genes modulated by VX-944 and the 66 genes modulated by MPA, 43 genes […]. To add additional value to the gene lists and provide additional information to the investigator, the genes underlying each of these expression patterns was queried against publicly available databases. These databases included Locus Link, Gene Cards, KEGG, GO annotations, OMIM, PubMed. The information gathered from such an analysis is organized below in data tables.

both IMPDH isozymes = conditions: cited from earlier work
PBMC cells = assay: Gene expression changes in resting and PHA-stimulated (proliferating) PBMCs treated with VX-944; format: cell-based, human; conditions: proliferating lymphocytes; out of 67 genes
[2] = test system: human peripheral lymphocytes; conditions: cited from earlier work
[3] = read-out: PBMCs PHA-T cell IC50
[4] = read-out: PHA-T cell IC50 in the presence of guanosine
[5] = common to early (14 h) and late (30 h)
[6] = treated vs. DMSO, early (14 h), VX-944 500 nM, MPA 1000 nM

SMILES | Ratio of PHA-T cell IC50 in the presence and absence of guanosine (PBMCs PHA-T cell) | pIC50 (PBMCs PHA-T cell; [3]) | pIC50 (PBMCs PHA-T cell; [4]) | No. genes modulated: Decreased [1] | No. genes modulated: Increased [1] | No. genes modulated [1] | Number of Genes Downregulated (HL-60 cells; [5]) | Number of Genes Total (HL-60 cells; [5]) | Number of Genes Upregulated (HL-60 cells; [5]) | Number of Genes Downregulated (HL-60 cells; treated vs. DMSO, early (14 h)) | Number of Genes Total (HL-60 cells; treated vs. DMSO, early (14 h)) | Number of Genes Upregulated (HL-60 cells; [6]) | Number of Genes Downregulated (HL-60 cells; treated vs. DMSO, late (30 h)) | Number of Genes Total (HL-60 cells; treated vs. DMSO, late (30 h)) | Number of Genes Upregulated (HL-60 cells; treated vs. DMSO, late (30 h)) | other results
COc1cc(NC(=O)Nc2cccc(CNC(=O)O[C@H]3CCOC3)c2)ccc1-c1cnco1 [VX-497] | 62 | 6.98 | 5.19 | – | – | – | – | – | – | – | – | – | – | – | – | –
COc1c(C)c2c(c(O)c1C/C=C(\C)CCC(=O)O)C(=O)OC2 [MPA, Mycophenolic acid] | >224 | 7.05 | < 4.70 | 36 | 39 | 75 | 0 | 66 | 66 | 0 | 105 | 105 | 560 | 1162 | 602 | FOLD CHANGE (MPA, EARLY) (HL-60 cells; gene ALG6): 1.5; FOLD CHANGE (MPA, EARLY) (HL-60 cells; gene C6orf18): 1.5; FOLD CHANGE (MPA, EARLY) (HL-60 cells; gene C8orf2): 1.5; FOLD CHANGE (MPA, EARLY) (HL-60 cells; gene C21orf4): 1.5; FOLD CHANGE (MPA, EARLY) (HL-60 cells; gene CLECSF5): 1.5; FOLD CHANGE (MPA, EARLY) (HL-60 cells; gene FBXO5): 1.6; FOLD CHANGE (MPA, EARLY) (HL-60 cells; gene FLJ10852 (HIP14L)): 1.5; FOLD CHANGE (MPA, EARLY) (HL-60 cells; gene KLHL2): 1.6; FOLD CHANGE (MPA, EARLY) (HL-60 cells; gene MGC13024): 1.5; FOLD CHANGE (MPA, EARLY) (HL-60 cells; gene MLC-B (MRLC2)): 1.8; FOLD CHANGE (MPA, EARLY) (HL-60 cells; gene RAGD): 1.5; FOLD CHANGE (MPA, EARLY) (HL-60 cells; gene RPAC2 (POLR1D)): 1.5; FOLD CHANGE (MPA, EARLY) (HL-60 cells; gene SNX10): 1.5; FOLD CHANGE (MPA, EARLY) (HL-60 cells; gene TMEM8): 1.7; FOLD CHANGE (MPA, EARLY) (HL-60 cells; gene TOPK): 1.5
CC[C@H](CC#N)OC(=O)N[C@@H](C)c1cccc(NC(=O)Nc2ccc(-c3cnco3)c(OC)c2)c1 [VX-944] | 373 | 7.68 | 5.11 | 60 | 46 | 106 | 0 | 102 | 102 | 119 | 291 | 172 | 0 | 434 | 434 | potency in cell assays relative to MPA (PBMCs PHA-T cell; VX-944 vs MPA): 3-4 fold; pKi (both IMPDH isozymes): 8.00 to 8.15; number of genes implicated in cancers that are down-regulated (PBMC cells): 4; inhibition of lymphocyte proliferation on addition of guanosine ([2]; 50 μM guanosine): alleviated; potency in inhibiting lymphocyte proliferation compared with other IMPDH inhibitors ([2]; stimulated with either T or B-cell mitogens): more potent than VX-497 or MPA; pIC50 ([2]; stimulated with either T or B-cell mitogens, read-out: IC50, inhibition of proliferation of human peripheral lymphocytes): 7.00 to 7.70
